According to patent publication US11312719B2, “9-substituted amino triazolo quinazoline derivatives as adenosine receptor antagonists, pharmaceutical compositions and their use” (Merck Sharp & Dohme Corp., priority 2018, dated 2022):

What was measured:
[1] = biological target: human A2a adenosine receptor (Homo sapiens (Human), UniProt P29274); assay: A2a receptor affinity radioligand binding assay ([3H] SCH58261); details: membranes from HEK293 or CHO cells expressing human A2a receptor
Method in brief: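 IC50 values come from 4-parameter logistic fits of filter-bound radioactivity, normalized to total (1% DMSO) and nonspecific (1 μM ZM241385) binding. Recombinant human A2a membranes (HEK293 or CHO) were exposed to compound for 15–30 min, then to [3H]SCH58261 (4 nM working dilution) for 60 min at room temperature in Tris pH 7.4/MgCl2/Tween20 buffer.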

[2] = biological target: human A2b adenosine receptor (Homo sapiens (Human), UniProt P29275); assay: A2b radioligand filtration binding assay; details: for IC50: membranes from HEK293 cells expressing human A2b receptor
Sequence of human A2b adenosine receptor (P29275 whole entry): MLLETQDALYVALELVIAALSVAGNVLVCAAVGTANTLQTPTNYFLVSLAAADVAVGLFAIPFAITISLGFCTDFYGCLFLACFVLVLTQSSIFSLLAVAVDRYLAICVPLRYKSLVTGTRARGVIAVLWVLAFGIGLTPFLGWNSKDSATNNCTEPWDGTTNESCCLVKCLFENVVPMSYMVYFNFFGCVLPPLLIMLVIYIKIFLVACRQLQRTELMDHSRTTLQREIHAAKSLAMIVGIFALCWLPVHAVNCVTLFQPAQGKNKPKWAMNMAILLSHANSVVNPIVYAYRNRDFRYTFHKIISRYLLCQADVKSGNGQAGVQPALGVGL
Method in brief: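 Displacement of a tritiated A2b antagonist (working solution 14 nM) from human A2b receptor membranes of recombinant HEK293 cells, in Mg/Ca-free PBS pH 7.4, 60 min at room temperature after 15 to 30 min compound preincubation. Filtered, counted; normalized to total and 20 μM NECA non-specific binding; IC50 from logistic fit.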

Sequence of human A2a adenosine receptor (P29274 whole entry): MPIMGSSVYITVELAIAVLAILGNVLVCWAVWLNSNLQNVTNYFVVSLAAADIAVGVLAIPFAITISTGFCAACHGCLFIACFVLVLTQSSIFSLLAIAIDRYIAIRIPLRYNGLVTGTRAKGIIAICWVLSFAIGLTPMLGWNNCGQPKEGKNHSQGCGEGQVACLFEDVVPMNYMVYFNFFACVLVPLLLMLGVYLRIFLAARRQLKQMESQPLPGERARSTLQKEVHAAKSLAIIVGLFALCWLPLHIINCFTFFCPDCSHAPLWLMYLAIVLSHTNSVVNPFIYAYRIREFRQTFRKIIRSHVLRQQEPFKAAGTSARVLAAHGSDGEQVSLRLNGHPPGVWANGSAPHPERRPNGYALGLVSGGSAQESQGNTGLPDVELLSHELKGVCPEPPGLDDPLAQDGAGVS

SMILES | IC50 [1] [nM] | IC50 [2] [nM] | A2B binding % Inh. @ 10000 nM [2] [% Inh.]
COc1cc2nc(N)n3nc([C@@H]4CCCN(c5ncn(C(C)C(C)(C)O)n5)C4)nc3c2cc1F (single isomer, unassigned) [Example 65, (S or R)-3-(3-((R)-3-(5-amino-9-fluoro-8-methoxy-[1,2,4]triazolo[1,5-c]quinazolin-2-yl)piperidin-1-yl)-1H-1,2,4-triazolo-1-yl)-2-methylbutan-2-ol] | 1.2 | 228 | –
COc1cc2nc(N)n3nc([C@@H]4CCN(c5cnn(CC6(O)CCC6)c5)C4)nc3c2cc1F [Example 38, (R)-1((4-(3-(5-amino-9-fluoro-8-methoxy-[1,2,4]triazolo[1,5-c]quinazolin-2-yl)prrolidin-l-yl)-1H-pyrazol-1-yl)methyl)cyclobutan-1-ol] | 16.9 | 182 | –
COc1cc2nc(N)n3nc([C@H]4CC[C@@H](C)N(c5cnn(CC6(O)CCC6)c5C)C4)nc3c2cc1F (single isomer, unassigned) [Example 51, 1-((4-((2R,5S or 2S,5R)-5-(5-amino-9-fluoro-8-methoxy-[1,2,4]triazolo[1,5-c]quinazolin-2-yl)-2-methylpiperidin-1-yl)-5-methyl-1H-pyrazol-1-yl)methyl)cyclobutan-1-ol] | 21 | 2080 | –
COc1cc(F)cc2c1nc(N)n1nc(C3CCC(C)N(c4cnn(CC(C)(C)O)c4)C3)nc21 (single isomer, unassigned) [Example 119, 1-(4-((2S or 2R,5S or 5R)-5-(5-amino-9-fluoro-7-methoxy-[1,2,4]triazolo[1,5-c]quinazolin-2-yl)-2-methylpiperidin-1-yl)-1H-pyrazol-1-yl)-2-methylpropan-2-ol] | 51.6 | 1300 | –
COc1cc(F)cc2c1nc(N)n1nc([C@@H]3CCCN(c4ccc(OC(C)C)nc4)C3)nc21 [Example 35, (R)-9-fluoro-2-(1-(6-isopropoxypyridin-3-yl)piperidin-3-yl)-7-methoxy-[1,2,4]triazolo[1,5-c]quinazolin-5-amine] | 0.6 | 12.2 | –
COc1cc2nc(N)n3nc([C@@H]4CCCN(c5cnn(C(C)C(C)(C)O)c5)C4)nc3c2cc1F (single isomer, unassigned) [Example 13, (R or S)-3-(4-((R)-3-(5-amino-9-fluoro-8-methoxy-[1,2,4]triazolo[1,5-c]quinazolin-2-yl)piperidin-l-yl)-1H-pyrazol-1-yl)-2-methylbutan-2-ol] | 0.7 | 72.6 | –
COc1cc2nc(N)n3nc(C45CC4CN(c4cnn(CC(C)(C)O)c4)C5)nc3c2cc1F (single isomer, unassigned) [Example 58, 1-(4-((1R,5R or 1S,5S)-1-(5-amino-9-fluoro-8-methoxy-[1,2,4]triazolo[1,5-c]quinazolin-2-yl)-3-azabicyclo[3.1.0]hexan-3-yl)-1H-pyrazol-1-yl)-2-methylpropan-2-ol] | 13.6 | 136 | –
COc1cc2nc(N)n3nc(C4CCCCN(c5cnn(CC(C)(C)O)c5)C4)nc3c2cc1F (single isomer, unassigned) [Example 61, (S or R)-1-(4-(3-(5-amino-9-fluoro-8-methoxy-[1,2,4]triazolo[1,5-c]quinazolin-2-yl)azepan-1-yl)-1H-pyrazol-1-yl)-2-methylpropan-2-ol] | 5 | 99 | –
COc1cc(F)cc2c1nc(N)n1nc(C3CC(F)CN(c4cn(CC(C)(C)O)nc4C)C3)nc21 (single isomer, unassigned) [Example 71, 1-(4-((3S,5R or 3R,5S)-3-(5-amino-9-fluoro-7-methoxy-[1,2,4]fltriazolo[1,5-c]quinazolin-2-yl)-5-fluoropiperidin-1-yl)-3-methyl-1H-pyrazol-1-yl)-2-methylpropan-2-ol] | 35.6 | – | 43
COc1cc2nc(N)n3nc([C@@H]4CCCN(c5cnn(CS(C)(=O)=O)c5C)C4)nc3c2cc1F [Example 130, (R)-9-fluoro-8-methoxy-2-(1-(5-methyl-1-((methylsulfonyl)methyl)-1H-pyrazol-4-yl)piperidin-3-yl)-[1,2,4]triazolo[1,5-c]quinazolin-5-amine] | 1.2 | 78.7 | –
COc1cc2nc(N)n3nc([C@@H]4CCCN(c5cnn(CCCC(C)O)c5)C4)nc3c2cc1F (single isomer, unassigned) [Example 95, (R or S)-5-(4-((R)-3-(5-amino-9-fluoro-8-methoxy-[1,2,4]triazolo[1,5-c]quinazolin-2-yl)piperidin-1-yl)-1H-pyrazol-1-yl)pentan-2-ol] | 205 | 5040 | –
COc1ccc(N2CCC[C@@H](c3nc4c5cc(F)cc(OC)c5nc(N)n4n3)C2)cn1 [Example 34, (R)-9-fluoro-7-methoxy-2-(1-(6-methoxypyridin-3-yl)piperidin-3-yl)-[1,2,4]triazolo[1,5-c]quinazolin-5-amine] | 1.4 | 29.7 | –
COc1cc2nc(N)n3nc(C4CCC(C)N(c5cnn(C(C)(C)CO)c5)C4)nc3c2cc1F (single isomer, unassigned) [Example 126, rac-2-(4-((2R or 2S,5R or 5S)-5-(5-amino-9-fluoro-8-methoxy-[1,2,4]triazolo[1,5-c]quinazolin-2-yl)-2-methylpiperidin-1-yl)-1H-pyrazol-1-yl)-2-methylpropan-1-ol] | 2.6 | 2160 | –
COc1cc2nc(N)n3nc([C@@H]4CCCN(c5cnn(C6CCCC6O)c5)C4)nc3c2cc1F (single isomer, unassigned) [Example 85, (1S or 1R,2S or 2R)-2-(4-((R)-3-(5-amino-9-fluoro-8-methoxy-[1,2,4]triazolo[1,5-c]quinazolin-2-yl)piperidin-1-yl)-1H-pyrazol-1-yl)cyclopentan-1-ol] | 5.2 | 192 | –
COc1cc(F)cc2c1nc(N)n1nc(C3CC(F)CN(c4cnn(CC5(O)CCC5)c4)C3)nc21 (single isomer, unassigned) [Example 73, 1-(4-((3S,5R or 3R,5S)-3-(5-amino-9-fluoro-7-methoxy-[1,2,4]triazolo[1,5-c]quinazolin-2-yl)-5-fluoropiperidin-1-yl)-1H-pyrazol-1-yl)methyl)cyclobutan-1-ol] | 436 | 5120 | –
Cn1cc(N2CCCC(c3nc4c5cc(F)ccc5nc(N)n4n3)C2)cn1 (single isomer, unassigned) [Example 102, (R or S)-9-fluoro-2-(1-(1-methyl-1H-pyrazol-4-yl)piperidin-3-yl)-[1,2,4]triazolo[1,5-c]quinazolin-5-amine] | 104 | 539 | –
COc1cc2nc(N)n3nc([C@@H]4CCCN(c5cnn(CC6(C)COC6)c5)C4)nc3c2cc1F [Example 15, (R)-9-fluoro-8-methoxy-2-(1-(1-((3-methyloxetan-3-yl)methyl)-1H-pyrazol-4-yl)piperidin-3-yl)[1,2,4] triazolo[1,5-c]quinazolin-5-amine] | 38.4 | 905 | –
CCn1cc(N2CCC[C@@H](c3nc4c5cc(F)c(OC)cc5nc(N)n4n3)C2)c(CO)n1 [Example 20, (R)-(4-(3-(5-amino-9-fluoro-8-methoxy-[1,2,4]triazolo[1,5-c]quinazolin-2-yl)piperidin-1-yl)-ethyl-1H-pyrazol-3-yl)methanol] | 5.8 | 163 | –
COc1cc2nc(N)n3nc([C@@H]4CCCN(c5cnn(C(C)C)c5)C4)nc3c2cc1F [Example 4, (R)-9-fluoro-2-(1-(1-isopropyl-1H-pyrazol-4-yl)piperidin-3-yl)-8-methoxy-[1,2,4]triazolo[1,5-c]quinazolin-5-amine] | 4.6 | 2.6 | –
COc1cc(F)cc2c1nc(N)n1nc([C@H]3CC[C@H](C)N(c4cn(CC(C)(C)O)nc4C)C3)nc21 (single isomer, unassigned) [Example 116, 1-(4-((2S or 2R,5S or 5R)-5-(5-amino-9-fluoro-7-methoxy-[1,2,4]triazolo[1,5-c]quinazolin-2-yl)-2-methylpiperidin-1-yl)-3-methyl-1H-pyrazol-1-yl)-2-methylpropan-2-ol] | 207 | – | 35
COc1cc(F)cc2c1nc(N)n1nc([C@@H]3CCCN(c4cnn(C(C)(C)CO)c4)C3)nc21 [Example 32, (R)-2-(4-(3-(5-amino-9-fluoro-7-methoxy-[1,2,4]triazolo[1,5-c]quinazolin-2-yl)piperidin-1-yl)-1H-pyrazol-1-yl)-2-methylpropan-1-ol] | 0.5 | 6.9 | –
COc1cc2nc(N)n3nc([C@@H]4CCCN(c5cn(CC(C)(C)O)nc5C5CC5)C4)nc3c2cc1F [Example 21, (R)-1-(4-(3-(5-amino-9-fluoro-8-methoxy-[1,2,4]triazolo[1,5-c]quinazolin-2-yl)piperidin-1-yl)-3-cyclopropyl-1H-pyrazol-1-yl)-2-methylpropan-2-ol] | 0.3 | 515 | –
COc1cc2nc(N)n3nc([C@@H]4CCCN(c5cnn(C(C)C(C)(C)O)c5)C4)nc3c2cc1F (single isomer, unassigned) [Example 12, (S or R)-3-(4-((R)-3-(5-amino-9-fluoro-8-methoxy-[1,2,4]triazolo [1,5-c]quinazolin-2-yl)piperidin-1-yl)-1H-pyrazol-1-yl)-2-methylbutan-2-ol] | 1.7 | 75 | –
COc1cc(F)cc2c1nc(N)n1nc([C@@H]3CCCN(c4cn(C(C)C(C)(C)O)nc4C)C3)nc21 (single isomer, unassigned) [Example 86, (S or R)-3-(4-((R)-3-(5-amino-9-fluoro-7-methoxy-[1,2,4]triazolo[1,5-c]quinazolin-2-yl)piperidin-1-yl)-3-methyl-1H-pyrazol-1-yl)-2-methylbutan-2-ol] | 0.3 | 165 | –
